From patent US9475814B2, “Chiral N-acyl-5,6,7(8-substituted)-tetrahydro-[1,2,4]triazolo[4,3-a]pyrazines as selective NK-3 receptor antagonists, pharmaceutical composition, methods for use in NK-3 receptor mediated disorders and chiral synthesis thereof” (Euroscreen S.A., priority 2011, dated 2016) come the findings set out here.

pIC50, pKi: −log10 of the molar value. Read-outs that look alike come from different tables or passages of the source.

Assay [1] deals with hERG channel (Homo sapiens (Human), UniProt Q12809). Kind of assay: hERG inhibition assay (manual patch-clamp, HEK 293 cells).
hERG channel, sequence (Q12809 whole entry): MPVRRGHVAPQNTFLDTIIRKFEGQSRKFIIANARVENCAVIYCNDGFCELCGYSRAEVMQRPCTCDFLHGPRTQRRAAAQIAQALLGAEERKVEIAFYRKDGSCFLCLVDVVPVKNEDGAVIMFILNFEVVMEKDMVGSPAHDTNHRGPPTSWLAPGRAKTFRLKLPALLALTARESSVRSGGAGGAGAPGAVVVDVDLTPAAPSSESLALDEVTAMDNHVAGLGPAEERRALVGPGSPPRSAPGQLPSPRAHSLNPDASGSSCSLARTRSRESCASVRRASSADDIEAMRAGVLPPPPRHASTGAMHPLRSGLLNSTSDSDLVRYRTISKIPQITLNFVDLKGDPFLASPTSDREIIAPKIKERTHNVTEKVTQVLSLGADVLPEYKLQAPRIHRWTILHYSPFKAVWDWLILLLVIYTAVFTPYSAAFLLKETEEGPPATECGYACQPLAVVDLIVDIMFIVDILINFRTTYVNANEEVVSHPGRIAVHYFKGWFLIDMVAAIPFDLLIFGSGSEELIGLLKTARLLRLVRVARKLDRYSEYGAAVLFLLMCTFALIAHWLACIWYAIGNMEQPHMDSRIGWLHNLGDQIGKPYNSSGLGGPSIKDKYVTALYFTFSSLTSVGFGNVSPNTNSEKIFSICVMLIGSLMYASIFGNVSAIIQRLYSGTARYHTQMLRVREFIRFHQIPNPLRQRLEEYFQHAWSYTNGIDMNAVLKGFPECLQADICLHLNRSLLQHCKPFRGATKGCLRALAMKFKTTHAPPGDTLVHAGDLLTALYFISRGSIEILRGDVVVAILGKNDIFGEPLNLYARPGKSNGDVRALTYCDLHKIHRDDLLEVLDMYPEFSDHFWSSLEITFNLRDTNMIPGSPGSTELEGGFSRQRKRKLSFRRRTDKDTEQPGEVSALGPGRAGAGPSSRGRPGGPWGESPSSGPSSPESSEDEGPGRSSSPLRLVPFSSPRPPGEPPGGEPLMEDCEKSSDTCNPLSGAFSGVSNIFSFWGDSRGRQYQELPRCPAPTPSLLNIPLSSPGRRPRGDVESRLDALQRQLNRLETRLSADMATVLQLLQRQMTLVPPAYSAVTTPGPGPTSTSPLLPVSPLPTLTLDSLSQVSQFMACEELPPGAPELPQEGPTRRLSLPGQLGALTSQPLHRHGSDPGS
Assay [2] deals with T1, human NK-3 receptor (Homo sapiens (Human), UniProt P29371). Kind of assay: Aequorin functional assay with human NK-3 receptor (antagonist testing vs NKA). It counts as cell-based. The following applies: inhibition of NKA (3 nM, EC80) response, CHO cells expressing human NK3 receptor and apoaequorin.
T1 sequence (P29371 whole entry): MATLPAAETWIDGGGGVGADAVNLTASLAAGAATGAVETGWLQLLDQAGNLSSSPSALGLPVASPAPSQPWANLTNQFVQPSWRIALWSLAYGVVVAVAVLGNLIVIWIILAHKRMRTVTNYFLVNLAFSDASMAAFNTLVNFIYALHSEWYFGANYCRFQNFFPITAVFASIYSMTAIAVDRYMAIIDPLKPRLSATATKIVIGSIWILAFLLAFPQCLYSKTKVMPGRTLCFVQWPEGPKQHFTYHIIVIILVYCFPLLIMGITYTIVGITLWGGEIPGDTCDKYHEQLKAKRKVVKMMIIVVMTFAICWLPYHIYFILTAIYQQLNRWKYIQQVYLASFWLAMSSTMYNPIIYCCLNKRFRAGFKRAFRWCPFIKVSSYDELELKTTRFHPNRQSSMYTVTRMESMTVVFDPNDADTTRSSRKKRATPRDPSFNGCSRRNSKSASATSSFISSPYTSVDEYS
Assay [3] has as its target T1, human NK-3 receptor. Kind of assay: 3H-SB222200 binding competition assay with human NK-3 receptor.
Procedure: ^3H-SB222200 Binding Competition Assay with Human NK-3 Receptor
The membranes were incubated with 5 nM ^3H-SB222200(ARC) in a HEPES 25 mM/NaCl 0.1M/CaCl2 1 mM/MgCl2 5 Mm/BSA 0.5%/Saponin 10 μg/ml buffer at pH 7.4 and various concentrations of compounds of the invention. The amount of ^3H-SB222200 bound to the receptor was determined after filtration by the quantification of membrane associated radioactivity using the TopCount-NXT reader (Packard).
Assay [4] has as its target human NK2 receptor (Homo sapiens (Human), UniProt P21452). Kind of assay: Human NK2 [125I]-Neurokinin A binding assay (selectivity). The following applies: read-out: NK2 Ki; CHO membranes, 0.1 nM [125I]-Neurokinin A.
In assay [5] the target is human NK1 receptor (Homo sapiens (Human), UniProt P25103). Put plainly: Human NK1 [3H] substance P binding assay (selectivity). The note with it: read-out: NK1 Ki; CHO membranes, 2 nM [3H] substance P.
human NK1 receptor, sequence (P25103 whole entry): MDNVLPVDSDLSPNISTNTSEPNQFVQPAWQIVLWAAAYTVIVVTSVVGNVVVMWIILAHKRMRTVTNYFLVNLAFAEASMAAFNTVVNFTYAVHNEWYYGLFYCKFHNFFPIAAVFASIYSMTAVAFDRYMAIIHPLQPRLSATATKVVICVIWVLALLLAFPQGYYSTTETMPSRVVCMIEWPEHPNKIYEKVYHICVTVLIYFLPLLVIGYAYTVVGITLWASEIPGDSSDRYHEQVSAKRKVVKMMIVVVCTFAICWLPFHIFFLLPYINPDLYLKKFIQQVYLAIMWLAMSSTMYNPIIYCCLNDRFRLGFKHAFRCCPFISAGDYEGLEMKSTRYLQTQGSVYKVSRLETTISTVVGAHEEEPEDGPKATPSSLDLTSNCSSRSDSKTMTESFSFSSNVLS
For assay [6], the system named is circulating levels of testosterone. Kind of assay: Gonad-intact adult male rat, circulating testosterone. It counts as in vivo. The note with it: single intravenous 50 mg/kg dose, gonad-intact male Sprague-Dawley rats, over the 210 minute test period (AUC).
Assay [7] concerns circulating levels of luteinizing hormone (LH). Kind of assay: Castrated male rat model, circulating luteinizing hormone (LH). It counts as in vivo. The note with it: single intravenous 10 mg/kg dose, castrated male Sprague-Dawley rats, 1 hour after dosing. From the text: Castrated Male Rat Model to Assess the Effect of Compound of Invention on Circulating Levels of Luteinizing Hormone (LH).
In humans and rodents, castration is well-precedented to permit heightened, persistent GnRH signaling and consequent elevation of circulating LH. Thus, a castrated rat model is used to provide a broad index for measurement of LH inhibition as a marker of test compound inhibition of the GnRH signaling pathway.
Castrated adult male Sprague-Dawley (SD) rats (150-175 g) were purchased from Janvier (St Berthevin, France). […] The animals were allowed 2 weeks of postoperative recovery prior to study. Animals were handled on a daily basis. Standard diet and tap water were provided ad libitum. Animal cage litters were changed once a week. On the study day, animals were acclimated to the procedure room for a period of one hour prior to the initiation of the experiment.
Compounds of the invention were formulated as apyrogen water with 90 g/L (2-Hydroxypropyl)-β-CycloDextrin.
After basal sampling (T0) a single dose of compounds of the invention or vehicle was administrated intravenously to rats. Blood was then collected at 60 min post dosing. Blood samples were obtained via tail vein bleed, drawn into EDTA-containing tubes and centrifuged immediately. […] Serum LH levels were determined using radioimmunoassay kit from RIAZEN—Rat LH, Zentech (Liège, Belgium). […]

The mark [8] stands for this setting: Table 6, membranes of CHO cells expressing human NK3 receptor, 5 nM 3H-SB222200, read-out: Ki.
Where [9] appears, read: Table 7, human NK-3 receptor, read-out: NK3 Ki.

human NK2 receptor, sequence (P21452 whole entry): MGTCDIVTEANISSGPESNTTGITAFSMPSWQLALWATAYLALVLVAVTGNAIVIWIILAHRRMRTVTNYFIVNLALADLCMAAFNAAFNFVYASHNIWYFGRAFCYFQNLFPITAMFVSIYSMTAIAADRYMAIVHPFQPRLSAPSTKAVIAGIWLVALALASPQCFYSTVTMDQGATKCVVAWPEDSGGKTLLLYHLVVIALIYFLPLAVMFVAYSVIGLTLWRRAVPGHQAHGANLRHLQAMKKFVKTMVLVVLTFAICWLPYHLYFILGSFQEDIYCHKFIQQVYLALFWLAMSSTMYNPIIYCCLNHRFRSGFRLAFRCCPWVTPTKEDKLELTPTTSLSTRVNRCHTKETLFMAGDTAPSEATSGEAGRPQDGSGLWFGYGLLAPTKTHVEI

A word on the pIC50: it is −log10 of the IC50, conventionally taken in molar units. A high value points to a small IC50. As a reminder, the pKi is the Ki on a negative log10 scale, so that one unit is a factor of ten. For `Cc1nc(-c2nnc3n2CCN(C(=O)c2ccc(-c4cccs4)cc2)[C@@H]3C)co1` [Compound 11, (R)-(8-methyl-3-(2-methyloxazol-4-yl)-5,6-dihydro-[1,2,4]triazolo[4,3-a]pyrazin-7(8H)-yl)(4-(thiophen-2-yl)phenyl)methanone], the pIC50 in assay [1] is < 4.52; in assay [2], 7.47. For the same compound, the pKi in assay [3] (setting [8]) is 7.36; in assay [3] (setting [9]), 7.36; in assay [4], < 5.00; in assay [5], < 5.00.

Consider `Cc1nc(-c2nnc3n2CCN(C(=O)c2ccc(-c4cccs4)cc2)[C@@H]3C)cs1` [Compound 1, (R)-(8-methyl-3-(2-methylthiazol-4-yl)-5,6-dihydro-[1,2,4]triazolo[4,3-a]pyrazin-7(8H)-yl) (4-(thiophen-2-yl)phenyl)methanone], for which the plasma testosterone levels result in assay [6] is “significantly suppressed plasma testosterone levels”. Besides, in assay [1], the pIC50 is < 4.52. Further, in assay [7], the “circulating LH levels” value is on record as “significantly suppressed circulating LH levels”. The pKi was 4.85 in assay [4] and 4.90 in assay [5].

With `Cc1nc(-c2nnc3n2CCN(C(=O)c2ccc(-c4cccs4)cc2)C3)cs1` [Compound 3, (3-(2-methylthiazol-4-yl)-5,6-dihydro-[1,2,4]triazolo[4,3-a]pyrazin-7(8H)-yl)(4-(thiophen-2-yl)phenyl)methanone], the values for the pIC50 in assay [1] and in assay [2] were 4.59 and 7.08, respectively. The pKi in assay [3] (setting [8]) is 7.08; in assay [3] (setting [9]) it was 7.08; in assay [4], < 5.00; in assay [5], < 5.00.

Consider `Cc1csc(-c2nnc3n2CCN(C(=O)c2ccc(-c4cccs4)cc2)[C@@H]3C)n1` [Compound 19, (R)-(8-methyl-3-(4-methylthiazol-2-yl)-5,6-dihydro-[1,2,4]triazolo[4,3-a]pyrazin-7(8H)-yl)(4-(thiophen-2-yl)phenyl)methanone], for which the pIC50 in assay [2] is 8.10. Also, the “circulating LH levels” value in assay [7] is given as “significantly suppressed circulating LH levels”. Besides, the pKi in assay [3] (setting [8]) was 8.22.

Regarding `C[C@@H]1c2nnc(-c3cccc(O)n3)n2CCN1C(=O)c1ccc(-c2cccs2)cc1` [Compound 31, (R)-(3-(6-hydroxypyridin-2-yl)-8-methyl-5,6-dihydro-[1,2,4]triazolo[4,3-a]pyrazin-7(8H)-yl)(4-(thiophen-2-yl)phenyl)methanone], the pIC50 in assay [1] was 4.70; in assay [2], 7.74. For the same compound, the pKi in assay [3] (setting [8]) was 7.66; in assay [3] (setting [9]), 7.66; in assay [4], < 5.00; in assay [5] it was < 5.00.

As to `O=C(c1ccc(-c2cccs2)cc1)N1CCn2c(nnc2-c2csc(C(F)(F)F)n2)C1` [Compound 4, (4-(thiophen-2-yl)phenyl)(3-(2-(trifluoromethyl)thiazol-4-yl)-5,6-dihydro-[1,2,4]triazolo[4,3-a]pyrazin-7(8H)-yl)methanone], the values for the pIC50 in assay [1] and in assay [2] were < 4.52 and 7.30, respectively. Besides, the pKi in assay [3] (setting [8]) is 7.25.
